{"source": "patent US20250367100A1", "about": "“GINSENOSIDE COMPOSITION, DAILY CHEMICAL AND USE” (INCIPIRIT TECH (GUANGZHOU) CO., LTD., priority 2023, published 2025)", "tested_on": "human epidermal keratinocytes", "test": "Proliferation of epidermal keratinocytes in a co-culture system of dermal papilla cells and epidermal keratinocytes", "assay_type": "cell-based", "conditions": "0.2 μg/ml, 2 μg/ml, 20 μg/ml, 200 μg/ml, FIG. 5", "experimental": "Add 500 μl of human epidermal keratinocytes (30,000 cells/ml) to each well of a 24-well MULTIWELL plate, then add a 1.0 μm of cell culture insert, and culture for 1 day. The 1.0 μm of cell culture insert already contains 300 μl of dermal papilla cells (20,000 cells/ml). Subsequently, add 1 μl/well each of the ginseng extracts 1-7, the positive control minoxidil sulfate, and the blank control (DMSO), and continue culturing for 3 days. Remove the 1.0 μm of cell culture insert, add 50 μl/well of Cell Counting Kit-8 (Dojindo Molecular Technologies, Inc.), continue culturing for 2 hours, and determine cell number using a microplate reader (450 nm, Mix 0).", "note": "Where a name gives a salt, the structure may show the parent alone.", "data": [{"compound": "Nc1cc(N2CCCCC2)nc(N)[n+]1OS(=O)(=O)[O-]", "note": "[minoxidil sulfate]", "values": [{"measurement": "proliferation of keratinocytes in co-culture system", "value": "no effect in promoting the proliferation of keratinocyte"}]}]}
